Data: US7772218B2, “Synthesis of anti-estrogenic and other therapeutic steroids from 21-hydroxy-19-norpregna-4-en-3-one” (SRI International, priority 2000, dated 2010)
Structures can show the parent of a compound that is named as a salt.

Columns and labels:
PC-3 cells = experiment: growth inhibition assay (MTT), androgen-independent human prostate cancer cells; assay type: cell-based; conditions: concentrations of 5 μM or higher, 7 days of treatment, 575 nm
Method: (§1) [drawing 32] was synthesized as described in Example 4 without methylation at the 7-position of the steroid nucleus. The compound was evaluated for its inhibitory effect on androgen-independent human prostate cancer cells, DU145 cells and PC-3 cells, in a standard in vitro androgen-independent human prostate cancer assay.
(§2) DU145 and PC-3 human prostate cancer cell lines were obtained from the American Type Culture Collection, Rockville, Md. Eagle's minimum essential medium, RPMI-1640 medium, fetal calf serum, nonessential amino acids, and sodium pyruvate were purchased from Sigma, St. Louis, Mo.
(§3) PC-3 cells were maintained in RPMI-1640 medium supplemented with 10% fetal calf serum (FCS) and DU145 cells in Eagle's minimum essential medium (MEM) supplemented with 10% FCS. 1% nonessential amino acids, and 1 mM pyruvate. All cells were cultured at 37° C. in a 5% CO2/ 95% air atmosphere in 100% humidity. […] After 7 days of treatment, viable cells in each well were measured using the MTT assay as described in “Cellular Proliferation Assay,” in Protocols and Applications, 3rd Edition (Promega Corporation). […]
(§4) The plate was kept at room temperature overnight and the blue color measured at 575 nm on an ELISA plate reader. Based on the optical density of samples treated with the test compound and that of the control, the inhibitory effect of SR 16312 was evaluated.

DU145 cells = experiment: as above; assay type: cell-based; conditions: concentrations of 5 μM or higher, 7 days of treatment, 575 nm
Method: as §1, §2, §3, §4

[1] = rats; cited from earlier work
human breast tumor cells = conditions: cited from earlier work
human uterine tissue = conditions: cited from earlier work
rat uterine tissue = conditions: cited from earlier work
[2] = rats; cited from earlier work; remark: listed apart in the source
[3] = in vivo, cited from earlier work

SMILES	inhibition (PC-3 cells)	inhibition (DU145 cells)	agonist-estrogenic activity in the skeletal system [1]	antagonist-antiestrogenic activity (human breast tumor cells)	anti-uterotrophic antagonist activity (human uterine tissue)	anti-uterotrophic antagonist activity (rat uterine tissue)	high-density lipoprotein (HDL) cholesterol levels [2]	low-density lipoprotein (LDL) cholesterol levels [2]	oral bioavailability ([3]; po)	absorption [3]	half-life [3]
CCN(CC)Cc1ccc(OCC[C@H]2CCC3C4CCC5=CC(=O)CCC5C4CCC32C)c(OC)c1 (some centres unmarked) [SR 16312]	~100%	~100%	–	–	–	–	–	–	–	–	–
CCN(CC)Cc1ccc(OCC[C@H]2CCC3C4C(CCC32C)c2ccc(O)cc2C[C@H]4C)c(OC)c1 (stereo partly drawn) [SR 16234, 3-hydroxy-7α-methyl-21-[2′-methoxy-4′-(diethylaminomethyl)-phenoxy]-19-norpregna-1,3,5(10)triene citrate]	–	–	maintenance of bone and prevention of bone loss	complete	complete	complete	increased	lowered	good	good	good
